These results are taken from US7713559B2, “Amorphous water-soluble calcium citrate salts and method of making and using same” (Kraft Foods Global Brands LLC, priority 2004, dated 2010).

Data set [1] can be described thus: dissolution in water and freedom from haze and sediment at 350 mg calcium per eight fluid ounce serving. The format is physicochemical. From the text: The solution remained completely free of haze and sediment for at least two days of storage at room temperature. Similar or even better results were obtained from the salts prepared having calcium:citrate mole ratios lower than 2:2, even when dissolved in water at higher concentrations.
These powders, in spite of the sediment produced, would provide very acceptable performance in many, if not most, food applications, including instant beverage mixes and acidified RTD beverages.
This behavior might also be acceptable in some situations (i.e., opaque instant beverage mixes), but appears to represent a practical upper limit for applications that require high levels of soluble calcium and/or require a sediment-free transparent appearance.
As an alternative to freeze drying, an amorphous 2:2 mole ratio calcium citrate salt, using the same ingredients as in Example 1, was also successfully produced via spray drying (i.e., pilot scale drying using standard operating conditions and procedures). In this case, chilled calcium hydroxide and citric acid solutions were combined and rapidly spray dried before solidification or sediment formation could occur. […] In a large scale commercial process, the citric acid and calcium hydroxide (or other suitable reagents) would be beneficially combined just prior to spray drying to limit the potential for solidification or sediment formation.
One batch of the chilled citric acid solution was poured into a mix tank jacketed with cooling water and one batch of calcium hydroxide suspension was added with stirring. […] The clear solution was immediately pumped into a semi-works scale spray dryer, fitted with an atomizing nozzle, at a flow rate of about 0.5 kg per minute. Additional batches of citric acid solution and calcium hydroxide suspension were similarly added to the mix tank as needed to prevent complete emptying. A sample of fine white powder was collected from the spray dryer after ten minutes of operation. […] After a further fifteen minutes, the cooling water was shut off from the jacketed mix tank. […] In less than one hour, the atomizing nozzle and pipe between the mix tank and the spray dryer became plugged with an accumulated deposit of insoluble crystalline calcium citrate.

Data set [2] can be described thus: pH and initial solution appearance of powders added to water at 1 percent. The format is physicochemical. To be noted: powder added to water at a level of 1 percent. The method, then:
Powders prepared according to the present invention, as described above, were added to water at a level of 1 percent to measure pH and assess initial solution appearance. The crystalline commercial 3:2 mole ratio TCC reference material was included for comparison.

The nature of data set [3]: shelf life testing of calcium-fortified RTD beverage. The format is physicochemical. To be noted: CRYSTAL LIGHT RTD lemon beverage. The method, then:
Fortified RTD beverages were formulated with several forms of calcium citrate. The visual appearance, flavor, and stability of the products were evaluated over a seven-month period by an experienced panel. Identical samples of each fortified beverage were prepared for shelf life testing under both ambient (22° C.) and refrigerated (4° C.) storage conditions.
The freeze dried amorphous 2:2 mole ratio calcium citrate salt (17% calcium) of Example 1 was successfully used to fortify a ready-to-drink sugar-free lemon-flavored beverage (CRYSTAL LIGHT®) with 350 mg calcium per eight fluid ounce serving (“excellent source of calcium” level). To formulate the calcium-fortified powdered mix, eight fluid ounces of commercial CRYSTAL LIGHT® RTD beverage mix was mixed thoroughly with 2 g of the freeze dried amorphous 2:2 mole ratio calcium citrate salt.

Data set [4] is described as follows: calcium-fortified powdered instant drink mixes reconstituted with cold water.
Procedure: One sample of the amorphous salt (2.0 g) was combined with 17.0 g sweetened Cherry Kool-Aid® powdered instant drink mix in a 400 ml beaker. The powdered drink mix contained sugar, fructose, citric acid, calcium phosphate (not a significant source of calcium), artificial flavor, artificial colors, and ascorbic acid. Another sample of the amorphous salt (2.0 g) was combined with 2.0 g artificially-sweetened Lemon CRYSTAL LIGHT® powdered instant drink mix and placed in a 400 ml beaker. The powdered drink mix contained citric acid, potassium citrate, maltodextrin, aspartame, magnesium oxide, natural flavor, lemon juice solids, acesulfame potassium, artificial colors, and BHA.
The conditions of data set [5]: room temperature; cited from earlier work.
Setting [6] is: freeze dried powders of Example 1 or commercial salts, room temperature water, 350 mg calcium per eight fluid ounce serving.

Take `O=C([O-])CC(O)(CC(=O)O)C(=O)[O-].[Ca+2]` [2:2, dicalcium citrate]: the “time solution remained completely free of haze and sediment” value in data set [1] (freeze dried powder, 2 g in 240 ml water, storage at room temperature) is given as “at least two”. Also, the “dissolution behaviour on addition to water” value in data set [1] (setting [6]) is given as “instantly dissolving clear solution”; in data set [1] (spray dried salt of Example 2 (pilot scale), 2 g in 240 ml room temperature water, 350 mg calcium per eight ounce serving) it was “instantly dissolving clear solution”. Moreover, the “dissolution in cold water” value in data set [1] (larger spray dryer, sample collected after ten minutes of operation, feed cooled, 350 mg calcium per eight fluid ounces) is on record as “rapidly dissolved in cold water without haze or precipitate”. Also, in data set [1] (larger spray dryer, sample collected after thirty minutes, cooling water shut off), the dissolution in water entry is given as “did not dissolve completely in water”. In addition, the “time solution remained completely free of sediment” value in data set [1] (spray dried salt of Example 2 (pilot scale), room temperature) is “at least three”. The “Initial Solution Appearance” value in data set [2] was “No haze; no sediment”. Also, the “Solution pH” value in data set [2] is given as 4.1. In data set [3] (350 mg calcium per eight fluid ounces, seven-month period, room temperature (22° C.) and refrigeration (4° C.)), the “sediment in fortified RTD beverage during shelf life evaluation” value is reported as “remained sediment free”. Moreover, in data set [4] (2.0 g salt with Cherry Kool-Aid or Lemon CRYSTAL LIGHT mix, eight fluid ounces cold water, no stirring), the “dissolution when water was added to fortified drink mix” value is on record as “dissolved immediately”. For the same compound, the “time reconstituted beverage remained free of sediment” value in data set [4] (Cherry Kool-Aid and Lemon CRYSTAL LIGHT mixes, 350 mg calcium per serving) was “at least 24 hours”.

On to “TCC tetrahydrate [3:2*, reference compound]”, for which the “haze and sediment produced at first, on or soon after addition to water” value in data set [1] (350 mg calcium per eight fluid ounce serving) is given as “immediately produced a large amount of a coarse, gritty white sediment”. For the same compound, the “dissolution behaviour on addition to water” value in data set [1] (setting [6]) is reported as “did not completely disperse in water”. For the same compound, the “sediment in fortified RTD beverage upon admixture of the ingredients” value in data set [3] (amounts to provide the same level of calcium) is “noticeable sediment formation”. In data set [4] (1.7 g in place of the amorphous salt, Cherry Kool-Aid and Lemon CRYSTAL LIGHT mixes), the “sediment formation in reconstituted beverage” value is listed as “large amounts of coarse gritty sediment were formed immediately”. For the same compound, in data set [4] (with rapid stirring or with the passage of time), the “dissolution of the sediment” value was “did not dissolve”. Besides, in data set [5], the solubility in water entry is “less than 0.1%” and the “soluble calcium provided per fluid ounce of water” value is reported as “about 6 mg”.

For the compound sesqui-calcium citrate [1.5:2], in data set [2], the “Initial Solution Appearance” value is on record as “No haze; no sediment” and the “Solution pH” value was 3.8.

Regarding `O=C([O-])CC(O)(CC(=O)O)C(=O)O.O=C([O-])CC(O)(CC(=O)O)C(=O)O.[Ca+2]` [1:2, monocalcium citrate], in data set [2], the “Initial Solution Appearance” value was “No haze; no sediment” and the “Solution pH” value came out at 3.4.
